# In publication PMC3997483, “Aminostyrylbenzofuran Directly Reduces Oligomeric Amyloid-β and Reverses Cognitive Deficits in Alzheimer Transgenic Mice” (PLoS ONE, 2014):
# Tests used:
# [1] = Pharmacokinetics IV/PO in mice; assay type: in vivo, ICR mice; settings: for AUC(0-t): read-out: AUC0–24h
# Description: (§1) Pharmacokinetics profile of KMS88009 was obtained using ICR mice, SD rats, beagle dogs and cynomolgus monkeys. Animals were fasted overnight before KMS88009 administration. Mice were divided into 2 groups to receive KMS88009 as a single dose of 2.1 mg/kg intravenous (IV) bolus or 10 mg/kg orally (PO) by gavage. Additionally, KMS88009 was administered orally to estimate the BBB penetration in mice (10, 30 and 100 mg/kg). […] Dog received KMS88009 either as an IV bolus (1 mg/kg) via the great saphenous vein or by oral gavage (4 mg/kg). KMS88009 was administrated to monkeys as an IV bolus (1 mg/kg) via the femoral vein or by oral gavage (4 mg/kg). Vehicle for IV and PO administration was DMSO/tween-20/saline (3.3∶19.8∶[…]). […]. Brain samples were weighed and Daunce-homogenized in 10-fold volume of ice-chilled 4% bovine serum albumin (BSA) solution at room temperature. Plasma and brain homogenates were kept frozen at −70°C until analysis. The levels of KMS88009 were determined by the LC-MS/MS analysis. Pharmacokinetic parameters, time to the maximum concentration (Tmax), maximum concentration (Cmax), elimination half-life (T1/2), volume of distribution (Vd), clearance (Cl) and mean residual time (MRT), of KMS88009 were calculated based on plasma concentration-time data by a non-compartmental method using WinNonlin Version 5.2 (Pharsight, USA). Area under the curve from 0 to 24 hr (AUC0-24h) and area under the curve from 0 to infinity (AUCINF) were obtained by linear and log linear trapezoidal summations.
# CYP2D6 = biological target: T1, CYP2D6 (Homo sapiens, UniProt P10635); test: CYP inhibition assay (Crespi, fluorescent probe); assay type: in vitro ADME
# T1 construct: five CYP isozymes (CYP3A4, 1A2, 2C9, 2C19, and 2D6) from human LM; from tissue; host or cells: human liver microsomes
# T1 sequence (P10635 whole entry): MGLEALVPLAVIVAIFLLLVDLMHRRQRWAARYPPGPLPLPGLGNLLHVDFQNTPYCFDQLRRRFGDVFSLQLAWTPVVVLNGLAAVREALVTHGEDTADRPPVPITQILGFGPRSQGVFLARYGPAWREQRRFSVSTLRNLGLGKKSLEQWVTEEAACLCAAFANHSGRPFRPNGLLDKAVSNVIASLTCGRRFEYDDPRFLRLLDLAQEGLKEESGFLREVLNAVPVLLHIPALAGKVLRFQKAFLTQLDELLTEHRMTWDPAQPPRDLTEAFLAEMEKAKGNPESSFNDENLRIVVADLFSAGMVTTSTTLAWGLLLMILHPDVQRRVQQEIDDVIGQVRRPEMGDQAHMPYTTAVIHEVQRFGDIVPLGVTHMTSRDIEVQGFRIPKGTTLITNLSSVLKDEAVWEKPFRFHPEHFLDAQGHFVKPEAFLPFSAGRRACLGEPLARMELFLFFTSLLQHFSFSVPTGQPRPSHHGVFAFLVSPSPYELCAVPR
# Description: (§2) Cytochrome P450 (CYP) inhibition assay was carried out according to the principle of the Crespi assay. Fluorescent probe substrates (BD Gentest, USA) used for each CYP isozyme were: 3-cyano-7-ethoxycoumarin for CYP1A2 and CYP2C19, 7-benzyloxy-trifluoromethylcoumarin for CYP3A4, 7-methoxy-4-trifluoromethylcoumarin for CYP2C9 and 3-[2-(N,N-diethyl-N-methylamino)ethyl]-7-methoxy-4-methyl-coumarin for CYP2D6. […] All reactions were stopped by addition of 75 µL of 0.1 M tris in acetonitrile and analyzed by an LC-MS/MS product ion monitoring method on Agilent 1200 HPLC (Agilent, USA) and API-5000 mass spectrometer (Canada). IC50 value was calculated using SigmaPlot 10.0 (Systat Software Inc., USA).
# CYP2C19 = biological target: T2, CYP2C19 (Homo sapiens, UniProt P33261); test: CYP inhibition assay (Crespi, fluorescent probe); assay type: in vitro ADME
# T2 construct: five CYP isozymes (CYP3A4, 1A2, 2C9, 2C19, and 2D6) from human LM; from tissue; host or cells: human liver microsomes
# T2 sequence (P33261 whole entry): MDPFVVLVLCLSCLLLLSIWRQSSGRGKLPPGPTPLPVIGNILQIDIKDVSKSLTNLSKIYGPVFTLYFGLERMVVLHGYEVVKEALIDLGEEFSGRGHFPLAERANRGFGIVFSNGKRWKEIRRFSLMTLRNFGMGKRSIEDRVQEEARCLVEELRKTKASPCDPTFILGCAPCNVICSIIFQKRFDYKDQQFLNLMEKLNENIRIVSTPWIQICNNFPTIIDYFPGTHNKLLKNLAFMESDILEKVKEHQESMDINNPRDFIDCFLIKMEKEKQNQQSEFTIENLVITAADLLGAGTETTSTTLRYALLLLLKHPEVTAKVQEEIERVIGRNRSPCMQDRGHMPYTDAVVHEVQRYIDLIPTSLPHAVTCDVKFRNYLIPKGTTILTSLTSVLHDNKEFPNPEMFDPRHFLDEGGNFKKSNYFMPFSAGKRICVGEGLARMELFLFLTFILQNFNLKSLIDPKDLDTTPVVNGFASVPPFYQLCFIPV
# Description: as §2
# CYP2C9 = biological target: T3, CYP2C9 (Homo sapiens, UniProt P11712); test: CYP inhibition assay (Crespi, fluorescent probe); assay type: in vitro ADME
# T3 construct: five CYP isozymes (CYP3A4, 1A2, 2C9, 2C19, and 2D6) from human LM; from tissue; host or cells: human liver microsomes
# T3 sequence (P11712 whole entry): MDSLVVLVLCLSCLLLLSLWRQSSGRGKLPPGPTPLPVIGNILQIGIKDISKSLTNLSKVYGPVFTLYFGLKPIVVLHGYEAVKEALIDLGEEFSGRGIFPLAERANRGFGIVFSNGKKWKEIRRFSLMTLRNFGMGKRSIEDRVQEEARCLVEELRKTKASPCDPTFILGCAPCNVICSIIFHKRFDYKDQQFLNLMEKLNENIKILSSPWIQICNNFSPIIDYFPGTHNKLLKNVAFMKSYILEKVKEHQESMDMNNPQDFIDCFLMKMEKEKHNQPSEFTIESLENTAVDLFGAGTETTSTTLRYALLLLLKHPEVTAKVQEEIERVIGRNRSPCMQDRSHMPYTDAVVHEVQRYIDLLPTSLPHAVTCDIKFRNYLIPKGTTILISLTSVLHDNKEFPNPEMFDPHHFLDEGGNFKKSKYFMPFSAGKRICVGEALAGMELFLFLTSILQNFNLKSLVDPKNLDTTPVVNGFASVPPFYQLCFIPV
# Description: as §2
# CYP3A4 = biological target: T4, CYP3A4 (Homo sapiens, UniProt P08684); test: CYP inhibition assay (Crespi, fluorescent probe); assay type: in vitro ADME
# T4 construct: five CYP isozymes (CYP3A4, 1A2, 2C9, 2C19, and 2D6) from human LM; from tissue; host or cells: human liver microsomes
# T4 sequence (P08684 whole entry): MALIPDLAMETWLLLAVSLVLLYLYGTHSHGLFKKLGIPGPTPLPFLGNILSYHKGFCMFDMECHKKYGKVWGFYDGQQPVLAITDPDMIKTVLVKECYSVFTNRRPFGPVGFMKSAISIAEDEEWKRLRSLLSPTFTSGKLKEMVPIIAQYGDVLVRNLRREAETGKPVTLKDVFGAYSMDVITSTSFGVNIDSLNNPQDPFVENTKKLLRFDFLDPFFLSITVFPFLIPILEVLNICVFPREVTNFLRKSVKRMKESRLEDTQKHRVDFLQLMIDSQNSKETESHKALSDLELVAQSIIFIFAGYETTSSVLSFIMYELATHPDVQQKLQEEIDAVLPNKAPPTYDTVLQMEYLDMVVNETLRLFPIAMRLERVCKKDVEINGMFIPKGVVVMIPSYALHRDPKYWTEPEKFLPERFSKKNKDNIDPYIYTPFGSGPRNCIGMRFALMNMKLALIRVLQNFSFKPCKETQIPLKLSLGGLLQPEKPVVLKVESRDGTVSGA
# Description: as §2
# CYP1A2 = biological target: T5, CYP1A2 (Homo sapiens, UniProt P05177); test: CYP inhibition assay (Crespi, fluorescent probe); assay type: in vitro ADME
# T5 construct: five CYP isozymes (CYP3A4, 1A2, 2C9, 2C19, and 2D6) from human LM; from tissue; host or cells: human liver microsomes
# T5 sequence (P05177 1-516): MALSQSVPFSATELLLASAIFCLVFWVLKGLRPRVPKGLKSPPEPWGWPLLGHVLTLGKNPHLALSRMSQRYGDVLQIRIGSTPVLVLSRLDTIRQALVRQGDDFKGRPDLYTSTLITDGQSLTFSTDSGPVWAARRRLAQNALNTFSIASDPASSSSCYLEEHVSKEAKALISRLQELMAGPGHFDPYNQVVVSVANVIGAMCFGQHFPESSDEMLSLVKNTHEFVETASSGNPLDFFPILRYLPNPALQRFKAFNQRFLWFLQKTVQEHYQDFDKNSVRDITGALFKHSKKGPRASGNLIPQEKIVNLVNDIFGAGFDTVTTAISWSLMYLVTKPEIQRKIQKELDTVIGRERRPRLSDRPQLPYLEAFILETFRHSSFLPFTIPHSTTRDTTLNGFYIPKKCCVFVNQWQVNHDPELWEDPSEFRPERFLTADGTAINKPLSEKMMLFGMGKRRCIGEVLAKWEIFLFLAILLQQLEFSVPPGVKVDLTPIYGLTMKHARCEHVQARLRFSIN
# Description: as §2
# Aβ oligomers = test: Western blot (6E10) of hippocampus soluble fraction, prophylactic trial; assay type: in vivo, mouse; settings: soluble fraction of hippocampal homogenates, TG mice
# [2] = Dissociation constant (pKa), GLpKa titration; assay type: physicochemical; settings: aqueous 150 mM NaCl solution
# Description: Dissociation constant (pKa) and partition coefficient (log P) Dissociation constant (pKa) and partition coefficient (log P) of KMS88009 were measured by a pH-method using GLpKa (Sirius, UK). pKa was measured by titrating KMS88009 solution and calculated from the shape of the titration curve. […] Log P of KMS88009 was calculated by a two-phase acid-base titration in a mixture of water and octanol. Three separate potentiometric titrations of KMS88009 were carried out at 23 ℃ in various octanol-water (0.15 M KCl) mixtures (0.5% to 50% octanol). The initial pH was adjusted to 10.0 with standardized 0.5 M NaOH prior to each titration. Titrations were performed with standardized 0.5 M HCl to pH 1.8. The pKa and log P values were calculated using RefinementPro software (Sirius, UK). Values are expressed as the mean ± SD of 3 independent experiments.
# in vitro = settings: monkey, liver microsomes
# [3] = Pharmacokinetics IV/PO in dogs; assay type: in vivo, beagle dogs; settings: for AUC(0-t): read-out: AUC0–24h
# Description: as §1
# [4] = Metabolic stability in liver microsomes; assay type: in vitro ADME; settings: mouse liver microsomes
# [5] = ICR, plasma, mouse IV 2.1 mg/kg
# [6] = ICR, mouse IV 2.1 mg/kg, plasma
smiles,measurement,setting,value
"COc1ccc2cc(C=Cc3ccc(N(C)C)cc3)oc2c1 [KMS88009, 6-methoxy-2-(4-dimethylaminostyryl) benzofuran]",MRT last,[1]; [5],2.9 h
same,Vd,[1]; [5],32.1 L/kg
same,clearance,[1]; [5],63.3 mL/min/kg
same,half-life,[1]; [5],5.9 h
same,MRT last,"[1]; ICR, plasma, mouse PO 10 mg/kg",5.5 h
same,Tmax,"[1]; ICR, plasma, mouse PO 10 mg/kg",1 h
same,half-life,"[1]; ICR, plasma, mouse PO 10 mg/kg",4.6 h
same,AUC(0-inf),[1]; [6],1330 ng·h/mL
same,AUC(0-t),[1]; [6],1300 ng·h/mL
same,AUC(0-inf),"[1]; ICR, mouse PO 10 mg/kg, plasma",6310 ng·h/mL
same,Cmax,"[1]; ICR, mouse PO 10 mg/kg, plasma",1060 ng/mL
same,AUC(0-t),"[1]; ICR, mouse PO 10 mg/kg, plasma",6160 ng·h/mL
same,BA,[1]; mouse PO 10 mg/kg vs IV […],99.6%
same,IC50,CYP2D6,> 50 µM
same,IC50,CYP2C19,2.51 ± 0.21 µM
same,IC50,CYP2C9,22.4 ± 1.25 µM
same,IC50,CYP3A4,9.84 ± 0.15 µM
same,IC50,CYP1A2,0.74 ± 0.12 µM
same,Aβ oligomer species affected (western blot),Aβ oligomers,prevented the accumulation of low-molecular-weight (3-mer) and high-molecular-weight (55 to 180 kDa) Aβ oligomeric species
same,pKa,[2],1.5 ± 0.12
same,half-life at 5 µM,in vitro,0.587 ± 0.01 h
same,"remaining at 1 h, 5 µM",in vitro,30.9 ± 0.2%
same,MRT last,"[3]; beagle, plasma, dog IV 1 mg/kg",2.9 ± 0.6 h
same,Vd,"[3]; beagle, plasma, dog IV 1 mg/kg",115 ± 61.1 L/kg
same,clearance,"[3]; beagle, plasma, dog IV 1 mg/kg",158 mL/min/kg
same,half-life,"[3]; beagle, plasma, dog IV 1 mg/kg",8.1 ± 1.4 h
same,MRT last,"[3]; beagle, plasma, dog PO 4 mg/kg",3.8 ± 0.4 h
same,Tmax,"[3]; beagle, plasma, dog PO 4 mg/kg",1 h
same,half-life,"[3]; beagle, plasma, dog PO 4 mg/kg",8.8 ± 2.5 h
same,AUC(0-inf),"[3]; beagle, dog IV 1 mg/kg, plasma",117 ± 43.6 ng·h/mL
same,AUC(0-t),"[3]; beagle, dog IV 1 mg/kg, plasma",112 ± 43.4 ng·h/mL
same,AUC(0-inf),"[3]; beagle, dog PO 4 mg/kg, plasma",103 ± 13 ng·h/mL
same,Cmax,"[3]; beagle, dog PO 4 mg/kg, plasma",32.8 ± 9.8 ng/mL
same,AUC(0-t),"[3]; beagle, dog PO 4 mg/kg, plasma",97.1 ± 14 ng·h/mL
same,BA,[3]; dog PO 4 mg/kg vs IV 1 mg/kg,21.6%
same,half-life at 5 µM,[4],1.088 ± 0.01 h
same,"remaining at 1 h, 5 µM",[4]; read-out: Remaining % of parent molecule at 60 min.,52.4 ± 0.3%
